Measurements as given in patent US8846947B2, “Benzimidazoles and related analogs as sirtuin modulators” (GlaxoSmithKline LLC, priority 2008, dated 2014).
Like-named read-outs stand apart in the source and are kept apart here.

Target: T1, SIRT1 (Homo sapiens, UniProt Q96EB6)
T1 sequence (Q96EB6 1-747): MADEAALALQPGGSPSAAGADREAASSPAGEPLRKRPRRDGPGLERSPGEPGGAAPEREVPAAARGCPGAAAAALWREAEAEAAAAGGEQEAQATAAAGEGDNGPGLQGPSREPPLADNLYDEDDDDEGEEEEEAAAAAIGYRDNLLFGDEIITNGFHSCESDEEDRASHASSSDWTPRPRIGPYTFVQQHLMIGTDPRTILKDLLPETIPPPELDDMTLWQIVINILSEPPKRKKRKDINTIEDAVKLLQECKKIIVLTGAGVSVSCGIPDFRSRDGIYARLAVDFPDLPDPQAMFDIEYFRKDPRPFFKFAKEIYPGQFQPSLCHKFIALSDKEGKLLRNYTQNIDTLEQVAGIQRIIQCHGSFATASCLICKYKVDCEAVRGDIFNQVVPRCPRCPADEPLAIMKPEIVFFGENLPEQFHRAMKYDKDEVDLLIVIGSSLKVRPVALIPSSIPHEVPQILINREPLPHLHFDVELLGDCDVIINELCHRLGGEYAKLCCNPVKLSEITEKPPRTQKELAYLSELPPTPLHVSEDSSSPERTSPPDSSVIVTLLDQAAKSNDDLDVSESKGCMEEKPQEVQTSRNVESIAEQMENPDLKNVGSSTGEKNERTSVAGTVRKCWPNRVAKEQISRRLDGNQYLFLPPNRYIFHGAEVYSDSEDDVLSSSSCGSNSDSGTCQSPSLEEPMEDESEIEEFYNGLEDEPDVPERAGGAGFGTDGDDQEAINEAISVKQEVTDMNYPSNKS
Experiment: Mass spectrometry based SIRT1 deacetylase activation assay (acetylated p53-derived peptide substrate)
Type: biochemical

[1] = 0.5 μM peptide substrate, 120 μM βNAD+, 10 nM SIRT1, 25 minutes at 25° C.
[2] = 0.5 μM peptide substrate, 120 μM βNAD+, 10 nM SIRT1, 25 min at 25° C.
[3] = 0.5 μM peptide substrate, 120 μM βNAD+, 10 nM SIRT1, 25 min at 25° C., read-out: EC1.5

EC1.5 | Fold Act. (percent maximum fold activation) | EC1.5 [1] | Fold Act. (percent maximum fold activation) [1] | Structure (SMILES) | other results
B (EC1.5 1-25 uM) | A (Fold activation >200%) | – | – | O=C(NC1CCNCC1)c1cccc2[nH]c(-c3cccc(C(F)(F)F)c3)nc12 [Compound 298] | –
B (EC1.5 1-25 uM) | A (Fold activation >200%) | – | – | O=C(Nc1cccnc1)c1cccc2[nH]c(-c3ccnc(N4CCCCC4)c3)nc12 [Compound 373] | –
A (EC1.5<1.0 uM) | A (Fold activation >200%) | – | – | O=C(Nc1ccncc1)c1cccc2[nH]c(-c3ccccc3C(F)(F)F)nc12 [Compound 262] | –
– | – | A (EC1.5<1.0 uM) | A (Fold activation >200%) | Cc1nc(C)c(-c2nc3c(C(=O)Nc4nc(CN5CCOCC5)cs4)cccc3[nH]2)s1 [Compound 848] | –
– | – | A (EC1.5<1.0 uM) | A (Fold activation >200%) | O=C(Nc1cccc(CN2CCOCC2)n1)c1cccc2[nH]c(-c3ccc(Cl)cc3C(F)F)nc12 [Compound 819] | –
– | – | A (EC1.5<1.0 uM) | A (Fold activation >200%) | O=C(Nc1cccc(CN2CCOCC2)n1)c1cccc2[nH]c(-c3ccccc3C(F)(F)F)nc12 [Compound 672] | –
A (EC1.5<1.0 uM) | A (Fold activation >200%) | – | – | O=C(Nc1ccncc1)c1cccc2[nH]c(-c3cccc(N4CCOCC4)c3)nc12 [Compound 287] | –
– | – | – | – | O=C(Nc1ccccn1)c1cccc2[nH]c(-c3ccccc3C(F)F)nc12 [Compound 516] | Fold Act. (percent maximum fold activation) [2]: A (Fold activation >200%); EC1.5 [3]: < 1000 nM
B (EC1.5 1-25 uM) | B (Fold Activation <200%) | – | – | O=C(Nc1ccc(Cl)nc1)c1cccc2[nH]c(-c3cccc(C(F)(F)F)c3)nc12 [Compound 307] | –
– | – | A (EC1.5<1.0 uM) | A (Fold activation >200%) | O=C(Nc1cccc(OC[C@@H](O)CO)c1)c1cncc2[nH]c(-c3ccccc3C(F)F)nc12 [Compound 714] | –
– | – | A (EC1.5<1.0 uM) | A (Fold activation >200%) | O=C(Nc1ccc(CN2CCCC2)nc1)c1cccc2[nH]c(-c3ccc(Cl)cc3C(F)(F)F)nc12 [Compound 685] | –
B (EC1.5 1-25 uM) | A (Fold activation >200%) | – | – | O=C(Nc1cccnc1Cl)c1cccc2[nH]c(-c3cccc(C(F)(F)F)c3)nc12 [Compound 286] | –
A (EC1.5<1.0 uM) | A (Fold activation >200%) | – | – | Cn1nc(C(F)(F)F)c(-c2nc3c(C(=O)Nc4nccs4)cccc3[nH]2)c1Cl [Compound 295] | –
A (EC1.5<1.0 uM) | A (Fold activation >200%) | – | – | Cc1nc(NC(=O)c2cccc3[nH]c(-c4ccccc4C(F)(F)F)nc23)sc1C [Compound 344] | –
– | – | A (EC1.5<1.0 uM) | A (Fold activation >200%) | O=C(Nc1ccccn1)c1cncc2nc(-c3ccc(OC[C@H](O)CO)cc3C(F)F)[nH]c12 [Compound 810] | –
– | – | – | – | O=C(Nc1ccc(CN2CCCC2)cn1)c1cccc2[nH]c(-c3ccc(Cl)cc3C(F)(F)F)nc12 [Compound 542] | Fold Act. (percent maximum fold activation) [2]: A (Fold activation >200%); EC1.5 [3]: < 1000 nM
– | – | – | – | CN1CCOc2cc(-c3nc4c(C(=O)Nc5cnccn5)cccc4[nH]3)cnc21 [Compound 473] | Fold Act. (percent maximum fold activation) [2]: A (Fold activation >200%); EC1.5 [3]: 1000 to 25000 nM
A (EC1.5<1.0 uM) | A (Fold activation >200%) | – | – | O=C(Nc1nccs1)c1cccc2[nH]c(-c3cccc(C(F)(F)F)c3)nc12 [Compound 202] | –
A (EC1.5<1.0 uM) | A (Fold activation >200%) | – | – | O=C(Nc1nccs1)c1cccc2[nH]c(-c3ccccc3OCCN3CCOCC3)nc12 [Compound 340] | –
B (EC1.5 1-25 uM) | A (Fold activation >200%) | – | – | O=C(Nc1nccs1)c1cccc2[nH]c(-c3ccccc3N3CCOCC3)nc12 [Compound 256] | –
– | – | A (EC1.5<1.0 uM) | A (Fold activation >200%) | Cc1cnc(NC(=O)c2cccc3[nH]c(-c4ccc(OC[C@H](O)CO)cc4C(F)(F)F)nc23)s1 [Compound 743] | –
– | – | A (EC1.5<1.0 uM) | A (Fold activation >200%) | O=C(Nc1ccccn1)c1cncc2[nH]c(-c3ccc(N4CCCC4)cc3C(F)F)nc12 [Compound 801] | –

EC1.5 | Fold Act. (percent maximum fold activation) | EC1.5 [1] | Fold Act. (percent maximum fold activation) [1] | Structure (SMILES) | other results
– | – | – | – | O=C(Nc1ccccn1)c1cccc2[nH]c(-c3ccc(F)cc3OCCN3CCOCC3)nc12 [Compound 504] | Fold Act. (percent maximum fold activation) [2]: B (Fold Activation <200%); EC1.5 [3]: 1000 to 25000 nM
A (EC1.5<1.0 uM) | A (Fold activation >200%) | – | – | Cc1nc(-c2ccccc2)c(-c2nc3c(C(=O)Nc4ccccn4)cccc3[nH]2)s1 [Compound 369] | –
A (EC1.5<1.0 uM) | A (Fold activation >200%) | – | – | O=C(Nc1cccnc1)c1cccc2[nH]c(-c3cccc(N4CCOCC4)c3)nc12 [Compound 288] | –
– | – | – | – | O=C(Nc1cccnc1)c1cccc2[nH]c(-c3ccc(N4CC[C@@H](F)C4)cc3C(F)(F)F)nc12 [Compound 575] | Fold Act. (percent maximum fold activation) [2]: A (Fold activation >200%); EC1.5 [3]: < 1000 nM
B (EC1.5 1-25 uM) | A (Fold activation >200%) | – | – | O=C(Nc1cccc2[nH]c(-c3cccc(C(F)(F)F)c3)nc12)c1cccnc1 [Compound 334] | –
– | – | – | – | CC1(C)Cc2cccc(-c3nc4c(C(=O)Nc5cccnc5)cccc4[nH]3)c2O1 [Compound 401] | Fold Act. (percent maximum fold activation) [2]: A (Fold activation >200%); EC1.5 [3]: 1000 to 25000 nM
– | – | A (EC1.5<1.0 uM) | A (Fold activation >200%) | O=C(Nc1cccnc1)c1cc(F)cc2[nH]c(-c3ccc(OC[C@H](O)CO)cc3C(F)F)nc12 [Compound 829] | –
– | – | – | – | CN1CCN(c2cccc(-c3nc4c(C(=O)Nc5ccccn5)cccc4[nH]3)c2)CC1 [Compound 528] | Fold Act. (percent maximum fold activation) [2]: A (Fold activation >200%); EC1.5 [3]: < 1000 nM
A (EC1.5<1.0 uM) | A (Fold activation >200%) | – | – | O=C(Nc1ccccn1)c1cccc2[nH]c(-c3cccc(N4CCOCC4)c3)nc12 [Compound 289] | –
A (EC1.5<1.0 uM) | A (Fold activation >200%) | – | – | O=C(Nc1nccs1)c1cccc2[nH]c(-c3cc(F)ccc3C(F)(F)F)nc12 [Compound 302] | –
A (EC1.5<1.0 uM) | A (Fold activation >200%) | – | – | Cc1cc(NC(=O)c2cccc3[nH]c(-c4ccccc4C(F)(F)F)nc23)n(C)n1 [Compound 354] | –
– | – | B (EC1.5 1-25 uM) | A (Fold activation >200%) | C[C@@H]1CN(CCOc2ccccc2-c2nc3c(C(=O)Nc4ccccn4)cccc3[nH]2)C[C@H](C)O1 [Compound 610] | –
– | – | A (EC1.5<1.0 uM) | A (Fold activation >200%) | O=C(Nc1cccc(OCC(O)CO)c1)c1cccc2[nH]c(-c3ccc(F)cc3C(F)(F)F)nc12 (centres unmarked) [Compound 705] | –
A (EC1.5<1.0 uM) | A (Fold activation >200%) | – | – | CN1CCOc2cc(-c3nc4c(C(=O)Nc5cccnc5)cccc4[nH]3)cnc21 [Compound 372] | –
– | – | A (EC1.5<1.0 uM) | A (Fold activation >200%) | O=C(Nc1ccccn1)c1cncc2[nH]c(-c3ccc(N4CCOCC4)cc3C(F)F)nc12 [Compound 806] | –
– | – | A (EC1.5<1.0 uM) | A (Fold activation >200%) | O=C(Nc1cccnc1)c1cncc2[nH]c(-c3ccc(N4CCOCC4)cc3C(F)F)nc12 [Compound 807] | –
A (EC1.5<1.0 uM) | A (Fold activation >200%) | – | – | Cc1cc(NC(=O)c2cccc3[nH]c(-c4ccc(F)cc4C(F)(F)F)nc23)n(C)n1 [Compound 375] | –
– | – | – | – | O=C(Nc1cccc(OC2CCNC2)c1)c1cccc2[nH]c(-c3cc(F)ccc3C(F)(F)F)nc12 (centres unmarked) [Compound 524] | Fold Act. (percent maximum fold activation) [2]: A (Fold activation >200%); EC1.5 [3]: < 1000 nM
– | – | – | – | CC(C)N1CCN(c2cccc(-c3nc4c(C(=O)Nc5nccs5)cccc4[nH]3)c2)CC1 [Compound 529] | Fold Act. (percent maximum fold activation) [2]: A (Fold activation >200%); EC1.5 [3]: < 1000 nM
– | – | A (EC1.5<1.0 uM) | A (Fold activation >200%) | O=C(Nc1ccc(OC[C@H](O)CO)cc1)c1cccc2[nH]c(-c3cccc(N4CCCC4)c3)nc12 [Compound 778] | –
– | – | A (EC1.5<1.0 uM) | A (Fold activation >200%) | O=C(Nc1ccc(CN2CCOCC2)nc1)c1cccc2[nH]c(-c3ccc(Cl)cc3C(F)(F)F)nc12 [Compound 684] | –
